Test results from patent publication US5622725A, “Wound disinfection and repair” (Alcide Corporation, priority 1996, dated 1997).

Test: Free radical signal by luminometer (modified luminol assay)
Settings: One hundred-fold dilutions, within one minute after mixing
Experimental: ClO2 (75 ppm) is generated by mixing 0.25% chlorite and 1.4% lactic acid. One hundred-fold dilutions are tested within one minute after mixing using electron paramagnetic spectroscopy (ESR) and a LKB luminometer.
The luminometer assay utilizes a modified luminol assay for radical detection. Luminol (LH2) reacts with free radicals (R·) as follows: […]
LOO^- →L2 + AP* (aminophthalate dianion, active state)
The pH optimum for the reaction is 10 to 12. The assay is standardized with an enzymatic system in which the generation of free radicals could be quantified by measuring generation of ·O2^-, obtained with the following reaction, […]
hypoxanthine+xanthine oxidase→urate+·O2^- by the reduction of ferricytochrome C.

[O][Cl+][O-] [ClO2, chlorine dioxide]
free radical signal: A strong free radical signal is generated
